Assay results from patent publication US11396499B2, “Lysosomal acid lipase assay” (University of Washington, priority 2018, dated 2022).

Key:
[1] = biological target: T1, lysosomal acid lipase (LAL) (Homo sapiens, UniProt P38571); experiment: Testing potential LAL substrates with DBS; format: biochemical
T1 construct: from tissue; host or cells: dried blood spots (DBS) from healthy adults, healthy children and LAL-deficient patients
T1 sequence (P38571 77-399): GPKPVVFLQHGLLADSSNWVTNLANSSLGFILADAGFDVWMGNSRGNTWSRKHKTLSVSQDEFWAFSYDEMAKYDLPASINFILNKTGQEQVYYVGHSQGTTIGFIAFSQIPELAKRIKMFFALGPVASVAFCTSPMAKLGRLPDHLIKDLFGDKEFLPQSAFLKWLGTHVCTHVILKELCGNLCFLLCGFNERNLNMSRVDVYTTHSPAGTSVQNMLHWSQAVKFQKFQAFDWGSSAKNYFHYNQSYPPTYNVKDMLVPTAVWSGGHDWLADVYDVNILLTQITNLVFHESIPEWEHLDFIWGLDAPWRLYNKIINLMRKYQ
Procedure: Compound 8. Assay cocktail contained 0.69 mM Compound 8, 10 mM internal standard (analog of the product containing an n-hexanoyl amide tail instead of the n-pentanoyl amide tail) in 0.15 M sodium acetate, pH 4.02, containing 0.1% Triton X-100. Assay cocktail (30 mL) was added to a 3 mm DBS punch from a normal adult and 10 mL of 30 mM aqueous Lalistat-2 or H2O was added, and the mixture was incubated at 37° C. for 16 hr in an Eppendorf tube with orbital shaking at 250 rpm. The assay was quenched by addition of 120 mL of acetonitrile. The sample was centrifuged for 5 min at 3000×g, and 120 mL of supernatant was transferred to an autosampler plate. Water (60 mL) was added to the well, and 10 mL was injected for UPLC-MS/MS. Compound 8 product was analyzed by UPLC-MS/MS using the authentic product as a standard to establish UPLC and MS/MS conditions.
Compound 9. Assay cocktail contained 0.3 mM Compound 9 (from a 10 mM DMSO stock) in a 14:1 solution of 0.15 M sodium acetate pH 4.0 1% Triton-X-100 and 0.5% m/v cardiolipin in methanol. […] Compound 9 product was analyzed by UPLC-MS/MS using the authentic product as a standard to establish UPLC and MS/MS conditions.
Compounds 10-13. […] Samples were immediately read on a plate-reader fluorometer with an excitation wavelength of 355 nm and emission wavelength of 460 nm. […]

[2] = biological target: T1, lysosomal acid lipase (LAL); experiment: Previous fluorometric LAL assay (Hamilton et al.) with palmitoyl-4MU with and without Lalistat-2 in DBS; format: biochemical
Source text: LAL is detected in leukocytes or fibroblasts using radiometric, immunologic, or fluorescence assays (The metabolic and molecular bases of inherited disease. 8th Ed. New York (NY): McGraw-Hill; 2001. p. 3827-3387). Hamilton and colleagues recently developed a fluorometric assay to detect LAL in dried blood spots (DBS) (Hamilton et al., Clin Chim Acta 2012; 413:1207-10). The assay is based on the release of 4-methylumbelliferone from its ester with palmitic acid. However, the substrate is not specific for LAL, and the method requires two assays performed in parallel, the first in the presence of a LAL-specific covalent inactivator Lalistat-2. LAL activity is calculated from the difference in these 2 assays.
A concentration of P-PMHC in the mixture of 3 mmol/L was settled on based on a combination of high LAL activity and minimal background. The original assay described by Hamilton et al. (Clin Chim Acta 2012; 413:1207-10) used 40 μL of an aqueous extract of a 3-mm DBS added to 160 μL of assay mixture. To keep the solvent volumes for the liquid-liquid extraction to a minimum, thus avoiding long times for solvent removal, 10 μL of an aqueous extract of a 3-mm DBS punch was added to 30 μL of assay mixture.

Compound | detectable LAL activity when tested with DBS [1] | specific activity for the LAL component ([2]; 3-mm punch from an identical DBS, previous fluorometric assay with and without Lalistat-2) [µmol/h/L] | fold lower than the activity measured with the UPLC-MS/MS assay ([2]; 466 versus 874 μmol/h/L, identical DBS) [fold] | fraction of the substrate hydrolyzed by esterases/lipases in DBS other than LAL ([2]; DBS)
4-propyl-8-methyl-7-palmitoyloxycoumarin [Compound 1] | None of these compounds displayed detectable LAL activity |  |  | 
CCCCCCCCCCCCCCCC(=O)Oc1ccc2c(C)cc(=O)oc2c1 [palmitoyl-4MU] | displayed measurable LAL activity | 466 | 1.9 | about one third
